The term inhibition denotes the drop in the measured response relative to a control, in per cent.

In assay [1] the target is T1, 5-HT uptake (Rattus norvegicus, UniProt P31652).
T1 construct: from tissue; host or cells: rat brain synaptosomes (P2 fraction) from marrow (medulla) and pons
Nature of the assay: Inhibition of 5-HT uptake in rat brain synaptosomes. Format: biochemical. As to conditions: [3H]-5-HT. The method, then:
The relevant literature reference is enclosed herein by reference and is to be regarded as part of the disclosure.
The homogenate is centrifuged at 4° C. for 10 minutes at 1000 g. Following subsequent centrifugation at 17,000 g for 55 minutes, the synaptosomes (P2 fraction) are obtained, which are then resuspended in 0.32 M […] (0.5 mL/100 mg of the original weight).
The respective uptake was measured in a 96 well microtiter plate. The volume was 250 μL and the incubation was carried out at room temperature (ca 20-25° C.) under a blanket of oxygen.
The 96 samples through were then filtered through a Unifilter GF/B® microtiter plate (Packard) and washed with 200 mL of incubated buffer with the aid of a “Brabdel Cell-Harvester MPXRI 96T”. The Unifilter GF/B plate was dried at 55° C. over a period of 1 h. The plate was then sealed with a back seal® (Packard) and there were then added 35 μL of scintillant fluid per well (Ultima Gold, Packard).
A detailed description of the method is disclosed in the literature, for example, in M. Ch.

In assay [2] the target is T2, NA transporter (Rattus norvegicus, UniProt Q63380).
T2 construct: from tissue; host or cells: rat brain synaptosomes (P2 fraction) from hypothalamus
The experiment in a line: Inhibition of noradrenaline uptake in rat brain synaptosomes. Format: biochemical. As to conditions: 10 μM, rat synaptosomes (hypothalamus), [3H]-NA; for inhibition at 10 µM: read-out: % Inhibition of NA uptake [10 μM]. As to the method:
II. […] For in vitro studies, synaptosomes of rat brain areas are freshly isolated, as described in the article “The isolation of nerve endings from brain” by E. G. Gray and […]. Anatomy 96, pages 79-88, 1962. The relevant literature reference is enclosed herein by reference and is to be regarded as part of the disclosure. […] The homogenate is centrifuged at 4° C. for 10 minutes at 1000 g. […] The respective uptake was measured in a 96 well microtiter plate. The volume was 250 μL and the incubation was carried out at room temperature (ca 20-25° C.) under a blanket of oxygen. […] The 96 samples through were then filtered through a Unifilter GF/B® microtiter plate (Packard) and washed with 200 mL of incubated buffer with the aid of a “Brabdel Cell-Harvester MPXRI 96T”. The Unifilter GF/B plate was dried at 55° C. over a period of 1 h. The plate was then sealed with a back seal® (Packard) and there were then added 35 μL of scintillant fluid per well (Ultima Gold, Packard). Following sealing with a top seal® (Packard) and following adjustment of the equilibrium (approximately over a period of 5 h), the radioactivity is determined in a 1450 Microbeta® (Wallac). […] The amount of protein used in the above determination corresponded to the values known from the literature, such as is described in “Protein measurement with the folin phenol reagent”, Lowry et al., J. Biol. Chem., 193, 265-275, 1951. A detailed description of the method is disclosed in the literature, for example, in […], and B. […] The relevant literature references are incorporated herein by reference and are to be regarded as part of the disclosure.

Setting [3] is: rat synaptosomes (medulla and pons).

T1 sequence (P31652 whole entry): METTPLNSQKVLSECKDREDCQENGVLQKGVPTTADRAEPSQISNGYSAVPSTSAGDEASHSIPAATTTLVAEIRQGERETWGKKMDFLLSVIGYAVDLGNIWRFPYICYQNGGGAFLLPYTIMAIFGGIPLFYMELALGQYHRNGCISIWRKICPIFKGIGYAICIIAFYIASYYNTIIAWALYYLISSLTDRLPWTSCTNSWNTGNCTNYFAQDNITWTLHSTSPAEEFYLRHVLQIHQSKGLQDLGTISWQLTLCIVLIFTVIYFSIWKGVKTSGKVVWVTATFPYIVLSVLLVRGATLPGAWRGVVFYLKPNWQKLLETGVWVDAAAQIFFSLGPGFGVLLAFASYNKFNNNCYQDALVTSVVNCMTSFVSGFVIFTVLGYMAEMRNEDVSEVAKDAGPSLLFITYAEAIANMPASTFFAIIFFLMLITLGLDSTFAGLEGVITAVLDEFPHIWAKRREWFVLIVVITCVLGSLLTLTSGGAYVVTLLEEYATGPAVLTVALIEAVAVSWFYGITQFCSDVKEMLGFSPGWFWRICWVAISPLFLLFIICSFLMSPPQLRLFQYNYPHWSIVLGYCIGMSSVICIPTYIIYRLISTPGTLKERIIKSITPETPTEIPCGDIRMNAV
T2 sequence (Q63380 1-617): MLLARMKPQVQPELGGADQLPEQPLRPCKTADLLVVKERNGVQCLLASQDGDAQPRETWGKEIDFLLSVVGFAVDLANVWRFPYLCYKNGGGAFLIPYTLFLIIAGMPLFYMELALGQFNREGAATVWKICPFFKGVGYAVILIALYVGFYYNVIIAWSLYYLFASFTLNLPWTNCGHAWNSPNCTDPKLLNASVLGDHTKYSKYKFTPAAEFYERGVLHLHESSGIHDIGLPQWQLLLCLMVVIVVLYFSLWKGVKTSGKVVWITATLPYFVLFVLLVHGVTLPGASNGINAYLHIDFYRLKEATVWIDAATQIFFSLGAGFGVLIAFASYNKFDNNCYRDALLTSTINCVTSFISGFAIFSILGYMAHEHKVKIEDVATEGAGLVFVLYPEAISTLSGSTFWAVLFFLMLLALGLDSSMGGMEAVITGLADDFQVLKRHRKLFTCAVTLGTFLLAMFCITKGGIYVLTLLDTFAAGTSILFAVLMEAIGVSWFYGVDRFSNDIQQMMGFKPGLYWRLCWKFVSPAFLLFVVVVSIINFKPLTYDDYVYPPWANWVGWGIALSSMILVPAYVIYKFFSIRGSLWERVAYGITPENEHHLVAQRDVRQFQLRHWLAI

Consider `CC(C(=O)Nc1nc2c(s1)CCCC2C(=O)NCCCN(C)C)c1ccccc1` (centres unmarked) [Example 3, 2-(2-Phenylpropionylamino)-4,5,6,7-tetrahydrobenzthiazol-4-carboxylic acid (3-dimethylaminopropyl)amide], for which the results for the inhibition at 10 µM in assay [1] (setting [3]) and in assay [2] were 61% and 65%, respectively. In the same order, the values of `COc1ccc(N2CCN(C(=O)C3CCCc4sc(NC(=O)c5ccccc5)nc43)CC2C)cc1` (centres unmarked) [Example 7, N-{4-[4-(4-Methoxyphenyl)-3-methylpiperazin-1-carbonyl]-4,5,6,7-tetrahydrobenzthiazol-2-yl]-benzamide] are 51% and 48%. Regarding `CC(=O)c1ccc(N2CCN(C(=O)C3CCCc4sc(NC(=O)c5ccco5)nc43)CC2)cc1` (centres unmarked) [Example 8, Furan-2-carboxylic acid{4-[4-(4-acetylphenyl)piperazin-1-carbonyl]-4,5,6,7-tetrahydrobenzthiazol-2-yl}amide], the “% Inhibition of 5-HT uptake [10 μM]” value in assay [1] (setting [3]) came out at 89%. For the same molecule, the “% Inhibition of NA uptake [10 μM]” value in assay [2] came out at 78%. With `COc1cc(OC)c(CN2CCC(NC(=O)C3CCCc4sc(NC(=O)c5ccco5)nc43)C2)c(OC)c1` (centres unmarked) [Example 9, 2-[(Furan-2-carbonyl)amino]-4,5,6,7-tetrahydrobenzthiazol-4-carboxylic acid [1-(-2,4,6-trimethoxybenzyl)pyrrolidin-3-yl]amide], the inhibition at 10 µM in assay [1] (setting [3]) came out at 53%; in assay [2], 98%.

Take `CC(C(=O)Nc1nc2c(s1)CCCC2C(=O)N1CCN(C(C)C)CC1)c1ccccc1` (centres unmarked) [Example 10, N-[4-(4-Isopropylpiperazin-1-carbonyl)-4,5,6,7-tetrahydrobenzthiazol-2-yl]-2-phenylpropionamide]: the inhibition at 10 µM worked out at 42% in assay [1] (setting [3]) and 64% in assay [2].

With `COc1ccc(C(=O)Nc2nc3c(s2)CCCC3C(=O)NCC2CCN(Cc3c(F)cccc3Cl)C2)cc1` (centres unmarked) [Example 12, 2-(4-Methoxybenzoylamino)-4,5,6,7-tetrahydrobenzthiazol-4-carboxylic acid [1-(2-chloro-6-fluorobenzyl)pyrrolidin-3-yl]methylamide], the inhibition at 10 µM was determined as 55% in assay [1] (setting [3]) and 48% in assay [2]. Take `O=C(Cc1cccs1)Nc1nc2c(s1)CCCC2C(=O)NCCCN1CCOCC1` (centres unmarked) [Example 14]: in assay [1] (setting [3]), the “% Inhibition of 5-HT uptake [10 μM]” value was 50%. Also, in assay [2], the “% Inhibition of NA uptake [10 μM]” value worked out at 43%.

With `O=C(Nc1nc2c(s1)CCCC2C(=O)N1CCN(Cc2cc3ccccc3o2)CC1)c1ccoc1` (centres unmarked) [Example 17, Furan-3-carboxylic acid[4-(4-benzofuran-2-ylmethylpiperazin-1-carbonyl)-4,5,6,7-tetrahydrobenzthiazol-2-yl]amide], the “% Inhibition of 5-HT uptake [10 μM]” value in assay [1] (setting [3]) worked out at 72%. Also, the “% Inhibition of NA uptake [10 μM]” value in assay [2] is 81%. The corresponding values for `CCCCCC(=O)Nc1nc2c(s1)CCCC2C(=O)NCCCN1CCCCC1C` (centres unmarked) [Example 18, 2-Hexanylamino-4,5,6,7-tetrahydrobenzthiazol-4-carboxylic acid[3-(2-methylpiperidin-1-yl)propyl]amide] are 57% and 43%. In the case of `CCOc1ccccc1C(=O)Nc1nc2c(s1)CCCC2C(=O)N1CCN(CCc2ccccc2)CC1` (centres unmarked) [Example 20, 2-Ethoxy-N-[4-(4-phenethylpiperazin-1-carbonyl)-4,5,6,7-tetrahydrobenzthiazol-2-yl]benzamide], the inhibition at 10 µM in assay [1] (setting [3]) came to 64%; in assay [2], 77%. In the same order, the values of `O=C(COc1ccc(F)cc1)Nc1nc2c(s1)CCCC2C(=O)N1CCN(c2ccccc2)CC1` (centres unmarked) [Example 21, 2-(4-Fluorophenoxy)-N-[4-(4-phenylpiperazin-1-carbonyl)-4,5,6,7-tetrahydrobenzthiazol-2-yl]acetamide] are 47% and 55%. As to `CC(C(=O)Nc1nc2c(s1)CCCC2C(=O)NCCC1CCCN1C)c1ccccc1` (centres unmarked) [Example 22, 2-(2-Phenylpropionylamino)-4,5,6,7-tetrahydrobenzthiazol-4-carboxylic acid [2-(1-methylpyrrolidin-2-yl)ethyl]amide], the figures for the inhibition at 10 µM in assay [1] (setting [3]) and in assay [2] were 44% and 60%, respectively. In the same order, the values of `CCCC(=O)Nc1nc2c(s1)CCCC2C(=O)N1CCN(Cc2cc3ccccc3o2)CC1` (centres unmarked) [Example 27, N-[4-(4-Benzofuran-2-ylmethylpiperazin-1-carbonyl)-4,5,6,7-tetrahydrobenzthiazol-2-yl]butyramide] are 61% and 47%.

For the molecule `COc1cccc(N2CCN(C(=O)C3CCCc4sc(NC(=O)c5ccccc5)nc43)CC2)c1` (centres unmarked) [Example 28, N-{4-[4-(3-Methoxyphenyl)piperazin-1-carbonyl]-4,5,6,7-tetrahydrobenzthiazol-2-yl}benzamide], the inhibition at 10 µM in assay [1] (setting [3]) turned out to be 48%; in assay [2], 60%. In the same order, the values of `CCCC(=O)Nc1nc2c(s1)CCCC2C(=O)NCC1CCN(Cc2ccc(-c3ccccc3)cc2)C1` (centres unmarked) [Example 29, 2-Butyrylamino-4,5,6,7-tetrahydrobenzthiazol-4-carboxylic acid (1-biphenyl-4-ylmethylpyrrolidin-3-yl)methylamide] are 55% and 73%.

Turning to `COc1cc(Br)c(CN2CCC(NC(=O)C3CCCc4sc(NC(=O)C(C)c5ccccc5)nc43)C2)cc1OC` (centres unmarked) [Example 33], in assay [1] (setting [3]), the “% Inhibition of 5-HT uptake [10 μM]” value is 63%. Besides, the “% Inhibition of NA uptake [10 μM]” value in assay [2] turned out to be 79%. The corresponding values for `CCCCCC(=O)Nc1nc2c(s1)CCCC2C(=O)N1CCN(Cc2c(OC)cc(OC)cc2OC)CC1` (centres unmarked) [Example 34, Hexanoic acid{4-[4-(2,4,6-trimethoxybenzyl)piperazin-1-carbonyl]-4,5,6,7-tetrahydrobenzthiazol-2-yl}amide] are 63% and 50%. The corresponding values for `O=C(Cc1cccs1)Nc1nc2c(s1)CCCC2C(=O)NCCN1CCCCCC1` (centres unmarked) [Example 39, 2-(2-Thiophen-2-ylacetylamino)-4,5,6,7-tetrahydrobenzthiazol-4-carboxylic acid(2-azepan-1-ylethyl)amide] are 49% and 50%. As to `CCOc1ccccc1CN1CCC(CNC(=O)C2CCCc3sc(NC(=O)Cc4cccs4)nc32)C1` (centres unmarked) [Example 40], the “% Inhibition of 5-HT uptake [10 μM]” value in assay [1] (rat synaptosomes (and pons)) is 48%. Besides, the “% Inhibition of NA uptake [10 μM]” value in assay [2] came out at 47%. For the molecule `O=C(CCc1ccccc1)Nc1nc2c(s1)CCCC2C(=O)NCC1CCN(Cc2cc3ccccc3o2)C1` (centres unmarked) [Example 48, 2-(3-Phenylpropionylamino)-4,5,6,7-tetrahydrobenzthiazol-4-carboxylic acid (1-benzofuran-2-ylmethylpyrrolidin-3-yl)methylamide], the inhibition at 10 µM in assay [1] (setting [3]) amounted to 51%; in assay [2] it was 67%.

With `COc1ccc(N2CCN(C(=O)C3CCCc4sc(NC(=O)C(C)c5ccccc5)nc43)CC2C)cc1` (centres unmarked) [Example 60, N-{4-[4-(4-Methoxyphenyl)-3-methylpiperazin-1-carbonyl]-4,5,6,7-tetrahydrobenzthiazol-2-yl}-2-phenylpropionamide], the inhibition at 10 µM in assay [2] stood at 41%. The same measure, in the same setting: the figure for `CC(c1ccccc1)N1CCN(C(=O)C2CCCc3sc(NC(=O)COc4ccccc4)nc32)CC1` (centres unmarked) [Example 66, 2-Phenoxy-N-{4-[4-(1-phenylethyl)piperazin-1-carbonyl]-4,5,6,7-tetrahydrobenzthiazol-2-yl}acetamide] is 48%. Consider `N#Cc1ccccc1N1CCN(C(=O)C2CCCc3sc(NC(=O)CCc4ccccc4)nc32)CC1` (centres unmarked) [Example 77, N-{4-[4-(2-Cyan-phenyl)piperazin-1-carbonyl]-4,5,6,7-tetrahydrobenzthiazol-2-yl}-3-phenylpropionamide], for which the “% Inhibition of NA uptake [10 μM]” value in assay [2] is 44%. Consider `COc1ccc2ccccc2c1CN1CCN(C(=O)C2CCCc3sc(NC(=O)CC(C)(C)C)nc32)CC1` (centres unmarked) [Example 79, N-{4-[4-(2-Methoxynaphthalene-1-ylmethyl)piperazin-1-carbonyl]-4,5,6,7-tetrahydrobenzthiazol-2-yl}-3,3-dimethylbutyramide], for which, in assay [2], the inhibition at 10 µM amounted to 71%.
